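Interpolation was linear, between the two tested concentrations surrounding the appropriate level; five concentrations were tested over 48 hours in 96-well plates. TGI denotes the concentration required for complete inhibition of growth.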
What was measured:
Assay in all cases: DTP human tumour cell line panel, 48 h
HOP-62 NSCLC = system: HOP-62 NSCLC
OVCAR-8 ovarian = system: OVCAR-8 ovarian
CAKI-1 renal = system: CAKI-1 renal
SK-MEL-28 melanoma = system: SK-MEL-28 melanoma
COLO 205 colon = system: COLO 205 colon
SN12C renal = system: SN12C renal
SR leukemia = system: SR leukemia
HCT-116 colon = system: HCT-116 colon
OVCAR-5 ovarian = system: OVCAR-5 ovarian
DU-145 prostate = system: DU-145 prostate
U251 CNS = system: U251 CNS
UACC-257 melanoma = system: UACC-257 melanoma
SW-620 colon = system: SW-620 colon
EKVX NSCLC = system: EKVX NSCLC
SF-539 CNS = system: SF-539 CNS
SK-MEL-5 melanoma = system: SK-MEL-5 melanoma
SNB-75 CNS = system: SNB-75 CNS
NCI/ADR-RES ovarian = system: NCI/ADR-RES ovarian
T-47D breast = system: T-47D breast
A498 renal = system: A498 renal

Structure (SMILES)	TGI (HOP-62 NSCLC) [µM]	TGI (OVCAR-8 ovarian) [µM]	TGI (CAKI-1 renal) [µM]	TGI (SK-MEL-28 melanoma) [µM]	TGI (COLO 205 colon) [µM]	TGI (SN12C renal) [µM]	TGI (SR leukemia) [µM]	TGI (HCT-116 colon) [µM]	TGI (OVCAR-5 ovarian) [µM]	TGI (DU-145 prostate) [µM]	TGI (U251 CNS) [µM]	TGI (UACC-257 melanoma) [µM]	TGI (SW-620 colon) [µM]	TGI (EKVX NSCLC) [µM]	TGI (SF-539 CNS) [µM]	TGI (SK-MEL-5 melanoma) [µM]	TGI (SNB-75 CNS) [µM]	TGI (NCI/ADR-RES ovarian) [µM]	TGI (T-47D breast) [µM]	TGI (A498 renal) [µM]
Cc1csc(NNC(N)=O)n1	> 100	> 100	> 100	> 100	> 100	> 100	> 100	> 100	> 100	> 100	> 100	> 100	> 100	> 100	> 100	> 100	> 100	> 100		
CSc1nc(Nc2ccccc2Cl)c2c(N)nn(C)c2n1	> 100	> 100	> 100	> 100	> 100	> 100		> 100	> 100	> 100	> 100	> 100	> 100	> 100		> 100		> 100	63.5	> 100
[N-]=[N+]=NC1(c2ccccc2)C(=O)C(Cl)=C(c2ccccc2)N(c2ccccc2)C1=O (configuration not stated)	> 100	> 100	> 100	> 100	> 100	> 100	> 100	> 100	> 100		> 100	> 100	> 100	> 100	> 100	> 100	> 100			> 100
O=C(O)[C@@H]1OCCOCCO[C@@H](C(=O)O)[C@H](C(=O)O)OCCOCCO[C@H]1C(=O)O	> 100	> 100	> 100	> 100	> 100	> 100	40	> 100	> 100		> 86.9	> 100	> 90.1	> 100	> 100	> 100	> 100			> 100
CC1=NN(c2nc(N)nc(CSc3cc(Cl)c(C)cc3S(N)(=O)=O)n2)C(C)(C)C1	> 10	> 10	> 10	> 10	> 10	> 10		> 10	> 10	> 10	> 10	> 10	> 10	> 10	> 10	> 10	> 10	> 10	> 10	> 10
CN(C)C1(N(C)C)Oc2c(c(=O)n(C)c(=O)n2C)C(c2ccc(C(F)(F)F)cc2)C1(F)F (configuration not stated)	> 100		> 100	> 100	> 100			> 100	> 100	> 100	> 100	> 100	> 100	> 100		> 100	> 100	> 100	> 100	> 100
O/N=C(/C(Cl)=C(Cl)Cl)C(Cl)Cl	46.9	66.8	87.3	30.2	44.2	34.1	26.7	34.8	49.4	97.4	35.2	40.6	38.8	> 100	44.9	40.3	43.7	73		> 100
C=C1[C@H]2O[C@H]2[C@@H](OC(C)=O)[C@@]2(C)[C@@H](OC(C)=O)C[C@@H](OC(=O)CCC)[C@@](C)(O)[C@@H]2[C@@H](OC(C)=O)[C@]2(O)[C@@H](C)C(=O)O[C@H]2[C@H]1Cl	> 100	> 100	> 100	> 100	> 100	> 100		> 100	> 100	> 100	> 100	> 100	> 100	> 100	> 100	> 100	> 100	> 100	> 100	> 100
COc1cc2oc(=O)cc(C)c2c(OC)c1O	> 100	> 100		> 100	> 100	> 100	> 100	> 100	> 100	> 100	> 100	> 100	> 100	> 100	> 100	> 100	> 100	> 100		94.8
COC(=O)[C@H](Cc1ccccc1)NC(=O)N(CCC#N)CCCCN(CCC#N)C(=O)N[C@@H](Cc1ccccc1)C(=O)OC	> 100	> 100	> 100	> 100	> 100	> 100		> 100	> 100	> 100	> 100	> 100	> 100	> 100		> 100	> 79.1	> 100	> 100	> 100
O=C(c1cccc2ccccc12)C1S(=O)(=O)OCCOS1(=O)=O	> 100	> 100	> 100	> 100	> 100	> 100	> 100	> 100	> 100	> 100	> 100			> 100		> 100		> 100		
COc1ccc2c(c1)c1c(n2CCN2CCOCC2)-c2cccc(OC)c2CC1	> 100	> 100	> 100	> 100	28.5	> 100	35.3	> 100	> 100	> 100	> 100	> 100	> 100		> 100	> 100		> 100	> 100	> 100
COCCOC(=O)NCn1cc(-c2ccccc2)nn1	> 100	> 100	> 100	> 100	> 100	> 100	> 100	> 100	> 100	> 100	> 100	> 100	> 100	> 100	> 100	> 100		> 100		

Reference: PubChem BioAssay (NCI)
